Assay results: US20220143194A1, “SELENIUM ANTIBODY CONJUGATES” (priority 2020, published 2022)
Non-standard residues stand in square brackets, D forms with d. Residues, ends and D or L forms follow the SMILES beside them. *: point of attachment. Dolaproine = CO[C@@H]([C@@H]1CCCN1)[C@@H](C)C(=O)O; Dil = CC[C@H](C)[C@H](NC)[C@@H](CC(=O)O)OC; X1 = C[C@@H](N*)[C@@H](O)c1ccccc1; NMeV = CN[C@H](C(=O)O)C(C)C

Key:
SKBR3 (Her2+) cells = test: In vitro cytotoxicity assay (CCK8 cell viability), SKBR3 (Her2+) cells; format: cell-based
Method: (§1) The ability of various antibody-drug conjugates and naked payloads to kill antigen-expressing tumor cells in vitro was assessed.
(§2) SKBR3 (Her2+) cells were seeded in 96 well plates at 8000 cells per well in complete growth media and grown overnight. For cell viability curves, serially diluted conjugates or naked payloads were added to the cells at final concentrations ranging from 100 nM to 5 pM and incubated for 3 days. NCI H1975 (Her2−) cells were run as negative controls using similar conditions. To measure viability, cells were incubated with CCK8 (Dojindo) for the final 2 hours and the absorbance at 450 nm (OD450) was determined on a Victor (Perkin Elmer). Background OD450 levels determined from digitonin (40 nM) treated cells were subtracted from all wells and viability is expressed as a percentage of the untreated controls. IC50 values were determined from a four-parameter logistic equation over a 10-point response curve (GraphPad Prism). […] The interchain disulfide conjugates had similar IC50 values as the transglutaminase site-specific selenocystamine conjugates. […] For comparison, the mc-vc-PAB-MMAE interchain disulfide conjugated molecules were produced according to Doronina, S. O. et al., Nat. Biotechnol., 2003, 21, 778.

NCI H1975 (Her2−) cells = test: In vitro cytotoxicity assay (CCK8 cell viability), NCI H1975 (Her2−) negative control cells; format: cell-based; conditions: 3 days incubation
Method: as §1, §2

## CC[C@H](C)[C@@H]([C@@H](CC(=O)N1CCC[C@H]1[C@H](OC)[C@@H](C)C(=O)N[C@H](C)[C@@H](O)c1ccccc1)OC)N(C)C(=O)[C@@H](NC(=O)[C@@H](NC)C(C)C)C(C)C [MMAE, monomethyl auristatin E] (H-[NMeV]V[Dil][Dolaproine]-X1)
SKBR3 (Her2+) cells; Homo sapiens, SK-BR-3, 72 h
  IC50: 0.191 nM
SKBR3 (Her2+) cells; SK-BR-3 cells, 3 days incubation, CCK8 viability, concentrations 100 nM to 5 pM
  % Kill: 93.6%
NCI H1975 (Her2−) cells; concentrations 100 nM to 5 pM
  % Kill: 100%
NCI H1975 (Her2−) cells; Homo sapiens, 72 h, IC50 corrected for payload equivalents
  IC50: 0.405 nM
